This is an account of results in patent US8809331B2 (Genentech, Inc., priority 2011, dated 2014).

By Ki is commonly meant the dissociation constant of the complex between target and ligand, obtained from inhibition or displacement.

The target in the first assay is T1, LRRK2 (Homo sapiens, UniProt Q5S007, G2019S).
T1 construct: purchased Invitrogen PV4882
T1 sequence (Q5S007 whole entry G2019S): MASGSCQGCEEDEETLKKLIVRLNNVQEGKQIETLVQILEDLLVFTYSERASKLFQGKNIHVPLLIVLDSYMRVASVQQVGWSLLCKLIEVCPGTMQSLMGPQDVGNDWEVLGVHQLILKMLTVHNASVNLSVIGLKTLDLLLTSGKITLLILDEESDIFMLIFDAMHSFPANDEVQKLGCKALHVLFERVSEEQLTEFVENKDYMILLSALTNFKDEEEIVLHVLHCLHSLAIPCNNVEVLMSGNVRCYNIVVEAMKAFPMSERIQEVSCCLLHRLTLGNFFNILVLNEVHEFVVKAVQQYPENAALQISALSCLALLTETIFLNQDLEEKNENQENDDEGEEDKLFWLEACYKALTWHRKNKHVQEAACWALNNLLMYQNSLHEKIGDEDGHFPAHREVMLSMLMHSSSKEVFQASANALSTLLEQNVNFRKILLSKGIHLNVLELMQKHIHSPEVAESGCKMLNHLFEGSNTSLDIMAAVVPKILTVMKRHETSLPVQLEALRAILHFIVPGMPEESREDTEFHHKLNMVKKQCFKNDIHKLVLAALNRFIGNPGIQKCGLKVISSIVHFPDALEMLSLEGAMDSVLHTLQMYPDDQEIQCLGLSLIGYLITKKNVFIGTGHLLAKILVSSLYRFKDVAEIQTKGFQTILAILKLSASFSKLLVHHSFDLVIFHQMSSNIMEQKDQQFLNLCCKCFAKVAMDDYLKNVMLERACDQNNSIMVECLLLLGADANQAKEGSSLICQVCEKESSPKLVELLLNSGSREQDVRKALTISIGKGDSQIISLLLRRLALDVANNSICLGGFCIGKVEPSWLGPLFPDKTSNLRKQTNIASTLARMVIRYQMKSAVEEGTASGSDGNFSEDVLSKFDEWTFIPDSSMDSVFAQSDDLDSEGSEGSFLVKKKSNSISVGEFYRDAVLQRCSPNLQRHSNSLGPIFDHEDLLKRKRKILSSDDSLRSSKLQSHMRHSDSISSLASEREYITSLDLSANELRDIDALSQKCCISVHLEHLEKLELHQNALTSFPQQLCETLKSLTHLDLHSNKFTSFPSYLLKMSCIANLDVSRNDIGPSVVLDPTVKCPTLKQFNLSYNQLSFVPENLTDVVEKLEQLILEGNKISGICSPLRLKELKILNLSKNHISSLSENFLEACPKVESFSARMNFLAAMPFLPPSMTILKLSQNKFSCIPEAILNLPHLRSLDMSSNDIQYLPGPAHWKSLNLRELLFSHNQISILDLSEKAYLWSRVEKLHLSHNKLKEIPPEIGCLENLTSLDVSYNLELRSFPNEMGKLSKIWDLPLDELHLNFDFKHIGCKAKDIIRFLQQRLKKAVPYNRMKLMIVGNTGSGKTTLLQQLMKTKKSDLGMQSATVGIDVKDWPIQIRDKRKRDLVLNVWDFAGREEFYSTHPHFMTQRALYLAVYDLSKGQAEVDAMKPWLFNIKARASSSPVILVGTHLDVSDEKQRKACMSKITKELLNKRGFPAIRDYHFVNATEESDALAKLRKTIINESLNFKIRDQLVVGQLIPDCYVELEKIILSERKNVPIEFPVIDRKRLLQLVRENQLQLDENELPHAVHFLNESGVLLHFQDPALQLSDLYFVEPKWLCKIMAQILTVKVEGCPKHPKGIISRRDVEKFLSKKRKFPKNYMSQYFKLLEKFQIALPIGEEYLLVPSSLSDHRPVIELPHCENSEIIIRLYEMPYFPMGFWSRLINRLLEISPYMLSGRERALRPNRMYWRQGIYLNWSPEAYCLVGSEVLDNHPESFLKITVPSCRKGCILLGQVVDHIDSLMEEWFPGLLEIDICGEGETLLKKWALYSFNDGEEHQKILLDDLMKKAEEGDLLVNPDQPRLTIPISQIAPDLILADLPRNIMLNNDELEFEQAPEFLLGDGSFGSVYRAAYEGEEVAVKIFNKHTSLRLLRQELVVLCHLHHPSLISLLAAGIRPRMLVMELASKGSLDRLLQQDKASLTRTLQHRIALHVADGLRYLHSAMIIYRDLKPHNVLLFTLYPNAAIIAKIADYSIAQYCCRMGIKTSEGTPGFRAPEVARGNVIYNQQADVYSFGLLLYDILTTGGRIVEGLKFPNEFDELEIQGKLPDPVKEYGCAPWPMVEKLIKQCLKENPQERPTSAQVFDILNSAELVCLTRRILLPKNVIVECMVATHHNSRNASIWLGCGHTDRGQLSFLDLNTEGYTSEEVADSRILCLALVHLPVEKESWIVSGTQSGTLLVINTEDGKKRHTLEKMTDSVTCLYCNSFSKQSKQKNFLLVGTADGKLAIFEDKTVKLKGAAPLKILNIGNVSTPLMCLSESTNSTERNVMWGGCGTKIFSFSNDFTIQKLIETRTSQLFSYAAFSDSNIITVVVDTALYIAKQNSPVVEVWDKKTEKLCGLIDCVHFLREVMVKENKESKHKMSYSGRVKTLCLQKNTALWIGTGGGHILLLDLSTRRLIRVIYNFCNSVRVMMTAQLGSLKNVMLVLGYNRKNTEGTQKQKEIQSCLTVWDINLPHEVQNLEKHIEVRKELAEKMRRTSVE
Kind of assay: In Vitro LRRK2 LabChip Assay (LRRK2 Ki). The assay is classed as biochemical. As to conditions: Table 5 compounds (formula I). As for the experimental part: In Vitro LRRK2 LabChip Assay
This assay was used to determine a compound's potency in inhibiting activity of LRRK2 by determining, Kiapp, IC50, or percent inhibition values. In a polypropylene plate, LRRK2, fluorescently-labeled peptide substrate, ATP and test compound were incubated together. Using a LabChip 3000 (Caliper Life Sciences), after the reaction the substrate was separated by capillary electrophoresis into two populations: phosphorylated and unphosphorylated. The relative amounts of each were quantitated by fluorescence intensity. LRRK2 Ki was determined according to the equation: Y=V0*(1−((x+Ki*(1+S/Km)+Et)/(2*Et)−(((x+Ki*(1+S/Km)+Et)^2−(4*Et*x))^0.5)/(2*Et))). Ki values in Table 4 and elsewhere herein are shown in μM.
Assay conditions and materials used were as follows:
LRRK2 Wild type in 5 mM MgCl2: 15 nM (Invitrogen lot #500607F)
Kinase reaction time: 2 hours
Wild type in 5 mM MgCl2: 80 μM
Solid Support: Black 50 μL volume polypropylene 384 well plate (MatriCal cat # MP101-1-PP)
Kinase: LRRK2 G2019S (Invitrogen cat #PV4882). • LRRK2 Wild type (Invitrogen cat #PV4874).
Substrate: 5FAM-[…]-CONH2
Non-binding plate: 384 well clear V-bottom polypropylene plates (Greiner cat #781280).
ATP: 10 mM ATP (Cell Signaling cat #9804).
Coating Reagent #3: Coating Reagent #3 (Caliper).
Complete Reaction Buffer: H2O/25 mM Tris, pH 8.0/5 mM MgCl2/2 mM DTT/0.01% Triton X-100.
Stop Solution: H2O/100 mM HEPES, pH 7.2/0.015% Brij-35/0.2% Coating Reagent #3/20 mM EDTA.
Separation Buffer: H2O/100 mM HEPES, pH 7.2/0.015% Brij-35/0.1% Coating Reagent #3/1:200 Coating Reagent #8/10 mM EDTA/5% DMSO.
Compound Plate Preparation:
For serial dilutions, 34.6 μl DMSO was added to columns 3-24. For the assay controls, 37.5 μl DMSO was added to columns 1 and 2 of rows A and P. a, d and 50 μl 25 μM G-028831 (Staurosporine) was added to columns 1 and 2, row B. For the samples: to start at 100 μM, 37.5 μl DMSO was to columns 1 and 2, then 12.5 μl 10 mM compound; to start at 10 μM, 78 μl DMSO was added to columns 1 & 2, then 2 μl 10 mM compound; and to start at 1 μM, 25 μM compound (2 μl 10 mM cmpd+798 μl DMSO) was added to empty columns 1 and 2. A Precision instrument was used to perform 1:3.16 serial dilutions (“PLK_BM_serial_halflog”).
ATP was diluted to 282.1 μM in Complete Kinase Buffer (final concentration was 130 μM).
Total and Blank Preparation:
In Complete Reaction Buffer, substrate was diluted to 4 μM. Equal volumes of Complete Reaction Buffer and 4 μM substrate were combined to obtain the blank. Equal volumes of Complete Reaction Buffer and 4 μM substrate were combined and to the combined solution was added 2× final LRRK2 concentration.
To a 50 μl polypropylene plate, 5 μl/well buffer/substrate was added by hand to Blank wells. A Biomek FX was used to start the kinase reaction (“PLK SAR 23 ATP”). The following were added to the appropriate wells:
5 μl/well compound/ATP in Assay Plate;
5 μl/well kinase/substrate in Assay Plate;
The plate was incubated for 2 hours in the dark. Biomek FX was used to stop the kinase reaction (“PLK Stop”), and 10 μl/well Stop solution was added to the Assay Plate. Results were read on the LabChip 3000.
The LabChip 3000 was run using the job “LRRK2 IC50” with the following job settings:
Downstream voltage: −500 V
Upstream voltage: −2350 V
Post sample buffer sip time: 75 seconds
Post dye buffer sip time: 75 seconds
Final delay time: 200 seconds
In the case of `COc1cc(C(=O)N2CCOCC2)c(C)cc1Nc1ncc(Cl)c(OC)n1` [Compound 93, [4-(5-Chloro-4-methoxy-pyrimidin-2-ylamino)-5-methoxy-2-methyl-phenyl]-morpholin-4-yl-methanone], the affinity, expressed as Ki, was 5.55 nM.
Consider `COc1cc(Nc2ncc(C(F)(F)F)c(NC3CCC3)n2)c(F)cc1C(=O)N1CCOCC1` [Compound 112, [4-(4-Cyclobutylamino-5-trifluoromethyl-pyrimidin-2-ylamino)-5-fluoro-2-methoxy-phenyl]-morpholin-4-yl-methanone], for which the Ki came to 0.353 nM.
`CNc1nc(Nc2cc(F)c(C(=O)N3C[C@H]4CC[C@@H](C3)O4)cc2OC)ncc1C(F)(F)F` [Compound 5, [2-Fluoro-5-methoxy-4-(4-methylamino-5-trifluoromethyl-pyrimidin-2-ylamino)-phenyl]-(1S,5R)-8-oxa-3-aza-bicyclo[3.2.1]oct-3-yl-methanone] had a Ki of 1.78 nM.
For `CNc1nc(Nc2cc(OC)c(C(=O)N3CCC(F)(F)C3)cc2OCCF)ncc1C(F)(F)F` [Compound 39, (3,3-Difluoro-pyrrolidin-1-yl)-[5-(2-fluoro-ethoxy)-2-methoxy-4-(4-methylamino-5-trifluoromethyl-pyrimidin-2-ylamino)-phenyl]-methanone], the affinity corresponds to a Ki of 1.46 nM.
In turn, `CCNc1nc(Nc2cc(F)c(C(=O)NC)cc2OC)ncc1C(F)(F)F` [Compound 37, 4-(4-Ethylamino-5-trifluoromethyl-pyrimidin-2-ylamino)-2-fluoro-5-methoxy-N-methyl-benzamide] gave a Ki of 1.31 nM.
`CNc1nc(Nc2cc(F)c(C(=O)N3CCOCC3)c(F)c2OC)ncc1C(F)(F)F` [Compound 63, [2,6-Difluoro-3-methoxy-4-(4-methylamino-5-trifluoromethyl-pyrimidin-2-ylamino)-phenyl]-morpholin-4-yl-methanone] returned a Ki of 24.3 nM.
`CCNc1nc(Nc2cc(OC(F)F)c(C(=O)N3CCOCC3)cc2Cl)ncc1C(F)(F)F` [Compound 78, [5-Chloro-2-difluoromethoxy-4-(4-ethylamino-5-trifluoromethyl-pyrimidin-2-ylamino)-phenyl]-morpholin-4-yl-methanone] gave a Ki of 6.87 nM.
In turn, `CNc1nc(Nc2cc(C)c(C(=O)N3CCOCC3)cc2Cl)ncc1C(F)(F)F` [Compound 2, [5-Chloro-2-methyl-4-(4-methylamino-5-trifluoromethyl-pyrimidin-2-ylamino)-phenyl]-morpholin-4-yl-methanone] returned a Ki of 7 nM.
`CCNc1nc(Nc2ccc(C(=O)N3CC[C@H](F)C3)cc2OC)ncc1C#N` [Compound 54, 4-Ethylamino-2-[4-((S)-3-fluoro-pyrrolidine-1-carbonyl)-2-methoxy-phenylamino]-pyrimidine-5-carbonitrile] gave a Ki of 82.5 nM.
With `CCNc1nc(Nc2cc(F)c(C(=O)N3CC4(CCO4)C3)cc2OC)ncc1C(F)(F)F` [Compound 34, [4-(4-Ethylamino-5-trifluoromethyl-pyrimidin-2-ylamino)-2-fluoro-5-methoxy-phenyl]-(1-oxa-6-aza-spiro[3.3]hept-6-yl)-methanone], the Ki is 1.3 nM. Against the preceding molecule, the Ki is about 63-fold lower.
For the molecule `CNc1nc(Nc2cc(Cl)c(C(=O)N3CCOCC3)cc2F)ncc1C(F)(F)F` [Compound 53, [2-Chloro-5-fluoro-4-(4-methylamino-5-trifluoromethyl-pyrimidin-2-ylamino)-phenyl]-morpholin-4-yl-methanone], the affinity, expressed as Ki, was 19.6 nM. This Ki lies about 15-fold higher than the previous one.
Take `CNc1nc(Nc2ccc(C(=O)N3CCOCC3)c(F)c2Cl)ncc1C(F)(F)F` [Compound 60, [3-Chloro-2-fluoro-4-(4-methylamino-5-trifluoromethyl-pyrimidin-2-ylamino)-phenyl]-morpholin-4-yl-methanone]: the affinity corresponds to a Ki of 14.2 nM.
Regarding `CNc1nc(Nc2cc(OC)c(C(=O)N(C)c3cnn(C)c3)cc2Cl)ncc1C(F)(F)F` [Compound 55, 5-Chloro-2-methoxy-N-methyl-4-(4-methylamino-5-trifluoromethyl-pyrimidin-2-ylamino)-N-(1-methyl-1H-pyrazol-4-yl)-benzamide], the affinity, expressed as Ki, was 14.5 nM.
Turning to `CCNc1nc(Nc2cc(C)c(C(=O)N3CCOCC3)cc2OC)ncc1C(F)(F)F` [Compound 44, [4-(4-Ethylamino-5-trifluoromethyl-pyrimidin-2-ylamino)-5-methoxy-2-methyl-phenyl]-morpholin-4-yl-methanone], affinity was put at a Ki of 0.31 nM.
`CNc1nc(Nc2cc(OC)c(C(=O)N3CC4(CCO4)C3)cc2Cl)ncc1C(F)(F)F` [Compound 40, [5-Chloro-2-methoxy-4-(4-methylamino-5-trifluoromethyl-pyrimidin-2-ylamino)-phenyl]-(1-oxa-6-aza-spiro[3.3]hept-6-yl)-methanone] returned a Ki of 2.76 nM.
`CNc1nc(Nc2ccc(C(=O)NCC(C)(C)O)c(F)c2OC)ncc1C(F)(F)F` [Compound 38, 2-Fluoro-N-(2-hydroxy-2-methyl-propyl)-3-methoxy-4-(4-methylamino-5-trifluoromethyl-pyrimidin-2-ylamino)-benzamide] gave a Ki of 11.6 nM. This Ki lies about 4.2-fold higher than the previous one.
`CNc1nc(Nc2cc(F)c(C(=O)N3CCOCC3)cc2F)ncc1Cl` [Compound 17, [4-(5-Chloro-4-methylamino-pyrimidin-2-ylamino)-2,5-difluoro-phenyl]-morpholin-4-yl-methanone] showed a Ki of 35.6 nM.
Still for that read-out and setting: as for `CCNc1nc(Nc2cc(F)c(C(=O)N3CCOCC3)cc2Cl)ncc1C(F)(F)F` [Compound 74, [5-Chloro-4-(4-ethylamino-5-trifluoromethyl-pyrimidin-2-ylamino)-2-fluoro-phenyl]-morpholin-4-yl-methanone], the figure is 4.65 nM.
For `[2H]C1([2H])OC([2H])([2H])C([2H])([2H])N(C(=O)c2cc(OC)c(Nc3ncc(C(F)(F)F)c(NC)n3)cc2C)C1([2H])[2H]` [Compound 104, (5-methoxy-2-methyl-4-(4-(methylamino)-5-(trifluoromethyl)pyrimidin-2-ylamino)phenyl)(perdeuteromorpholino)methanone], the Ki was 0.342 nM.
`CCNc1nc(Nc2cc(F)c(C(=O)N3CCOCC3)cc2F)ncc1C(F)(F)F` [Compound 31, [4-(4-Ethylamino-5-trifluoromethyl-pyrimidin-2-ylamino)-2,5-difluoro-phenyl]-morpholin-4-yl-methanone] registered a Ki of 9.48 nM.
Still for that read-out and setting: as for `COc1nc(Nc2ccc(C(=O)N3CCOCC3)cc2OCCF)ncc1Cl` [Compound 57, [4-(5-Chloro-4-methoxy-pyrimidin-2-ylamino)-3-(2-fluoro-ethoxy)-phenyl]-morpholin-4-yl-methanone], the figure is 14.5 nM; as for `CCNc1nc(Nc2cc(OC)c(C(=O)N3CCOCC3)cc2OC)ncc1C(F)(F)F` [Compound 125, [4-(4-Ethylamino-5-trifluoromethyl-pyrimidin-2-ylamino)-2,5-dimethoxy-phenyl]-morpholin-4-yl-methanone], 0.577 nM; as for `CNc1nc(Nc2ccc(C(=O)N3CCOCC3)c(F)c2F)ncc1Cl` [Compound 13, [4-(5-Chloro-4-methylamino-pyrimidin-2-ylamino)-2,3-difluoro-phenyl]-morpholin-4-yl-methanone], 14.5 nM.
Consider `CCNc1nc(Nc2cc(C)c(C(=O)N3CCOCC3)cc2Cl)ncc1C(F)(F)F` [Compound 71, [5-Chloro-4-(4-ethylamino-5-trifluoromethyl-pyrimidin-2-ylamino)-2-methyl-phenyl]-morpholin-4-yl-methanone], for which the affinity, expressed as Ki, was 1.08 nM.

The assay is the same for the next values; noted with them: Table 6 compounds (formula II/III, fused ring).
`CNc1nc(Nc2cc(C)c(C(=O)N3CCOCC3)cc2Cl)ncc1C(F)(F)F` [Compound 2, [5-Chloro-2-methyl-4-(4-methylamino-5-trifluoromethyl-pyrimidin-2-ylamino)-phenyl]-morpholin-4-yl-methanone] returned a Ki of 0.31 nM.
